{
  "source": "paper PMC9199881",
  "about": "(Clinical and Translational Science, 2022)",
  "key": {"[1]": {"system": "healthy subjects", "test": "Concentration-QTc", "type": "in vivo, human", "details": "Part B; 400 mg alone"}, "[2]": {"system": "healthy subjects", "test": "Safety assessment", "type": "in vivo, human", "details": "Part B; 400 mg alone"}, "[3]": {"test": "Plasma pharmacokinetics, Part B"}, "[4]": {"system": "healthy volunteers", "details": "cited from earlier work"}, "[5]": {"system": "healthy subjects", "details": "100 mg twice daily (b.i.d.); cited from earlier work"}, "[6]": {"details": "human, in vivo, 400 mg, Mean (SD), 400 mg single dose alone"}, "[7]": {"details": "human, in vivo, 400 mg, Median (range), 400 mg single dose alone"}},
  "data": [
    {"molecule": "COc1c(N2C[C@@H]3CCCN[C@@H]3C2)c(F)cc2c(=O)c(C(=O)O)cn(C3CC3)c12", "note": "[Moxifloxacin, moxifloxacin, reference compound]", "values": [
      {"measurement": "predicted ΔΔQTcF at the observed geometric mean Cmax", "setting": "[1]", "value": 14.7, "unit": "ms"},
      {"measurement": "Treatment-related TEAE: Abdominal pain, n (%)", "setting": "[2]", "value": "1 (2.8) n (%)"},
      {"measurement": "Treatment-related TEAE: Diarrhea, n (%)", "setting": "[2]", "value": "1 (2.8) n (%)"},
      {"measurement": "Treatment-related TEAE: Dizziness, n (%)", "setting": "[2]", "value": "1 (2.8) n (%)"},
      {"measurement": "Treatment-related TEAE: Dysgeusia, n (%)", "setting": "[2]", "value": "0 n (%)"},
      {"measurement": "Treatment-related TEAE: Frequent bowel movements, n (%)", "setting": "[2]", "value": "0 n (%)"},
      {"measurement": "Treatment-related TEAE: Gastrointestinal disorders, n (%)", "setting": "[2]", "value": "1 (2.8) n (%)"},
      {"measurement": "Treatment-related TEAE: Headache, n (%)", "setting": "[2]", "value": "0 n (%)"},
      {"measurement": "Treatment-related TEAE: Herpex simplex, n (%)", "setting": "[2]", "value": "0 n (%)"},
      {"measurement": "Treatment-related TEAE: Infections and infestations, n (%)", "setting": "[2]", "value": "1 (2.8) n (%)"},
      {"measurement": "Treatment-related TEAE: Lethargy, n (%)", "setting": "[2]", "value": "1 (2.8) n (%)"},
      {"measurement": "Treatment-related TEAE: Nausea, n (%)", "setting": "[2]", "value": "1 (2.8) n (%)"},
      {"measurement": "Treatment-related TEAE: Nervous system disorders, n (%)", "setting": "[2]", "value": "2 (5.6) n (%)"},
      {"measurement": "Treatment-related TEAE: Somnolence, n (%)", "setting": "[2]", "value": "0 n (%)"},
      {"measurement": "Treatment-related TEAE: Subjects with ≥1 TEAE, n (%)", "setting": "[2]", "value": "3 (8.3) n (%)"},
      {"measurement": "Treatment-related TEAE: Vomiting, n (%)", "setting": "[2]", "value": "1 (2.8) n (%)"},
      {"measurement": "incidence of treatment-related TEAEs", "setting": "[2]", "value": 8.3, "unit": "%"},
      {"measurement": "participants with diarrhea", "setting": "[2]", "value": 2.8, "unit": "%"},
      {"measurement": "Tmax, Median (range)", "setting": "[3]; 400 mg single dose alone", "value": "2.1 (0.6–10) h"},
      {"measurement": "AUC(0-t)", "setting": "[3]; human, in vivo, 400 mg, AUC0–last, Mean (SD), 400 mg single dose alone", "value": 22700, "unit": "ng·h/mL"},
      {"measurement": "AUC(0-inf)", "setting": "[3]; human, in vivo, 400 mg, AUC0–∞, Mean (SD), 400 mg single dose alone", "value": 27400, "unit": "ng·h/mL"},
      {"measurement": "Cmax", "setting": "[3]; [6]", "value": 2360, "unit": "ng/mL"},
      {"measurement": "Cmax", "setting": "[3]; [7]", "value": 2310, "unit": "ng/mL"},
      {"measurement": "Cmax", "setting": "[3]; human, in vivo, 400 mg, range, single moxifloxacin 400 mg dose", "value": "1230 to 4080", "unit": "ng/mL"},
      {"measurement": "Tmax", "setting": "[3]; [6]", "value": 2.2, "unit": "h"},
      {"measurement": "Tmax", "setting": "[3]; [7]", "value": "~2", "unit": "h"},
      {"measurement": "geometric mean peak concentration", "setting": "[3]; moxifloxacin 400 mg", "value": 2260, "unit": "ng/mL"}
    ]},
    {"molecule": "CC#CC(=O)N1CCC[C@H]1c1nc(-c2ccc(C(=O)Nc3ccccn3)cc2)c2c(N)nccn12", "note": "[acalabrutinib]", "values": [
      {"measurement": "prolongation of the QTc interval or clinically relevant ECG effects", "setting": "[4]", "value": "no prolongation of the QTc interval or clinically relevant ECG effects"}
    ]},
    {"molecule": "C=CC(=O)N1CCC(CNc2ncnc(N)c2-c2ccc(Oc3ccccc3)cc2)CC1", "note": "[evobrutinib]", "values": [
      {"measurement": "prolongation of the QTc interval or clinically relevant ECG effects", "setting": "[4]", "value": "no prolongation of the QTc interval or clinically relevant ECG effects"}
    ]},
    {"molecule": "CC(C)c1nc(CN(C)C(=O)N[C@H](C(=O)N[C@@H](Cc2ccccc2)C[C@H](O)[C@H](Cc2ccccc2)NC(=O)OCc2cncs2)C(C)C)cs1", "note": "[ritonavir]", "values": [
      {"measurement": "effect on QT", "setting": "[5]", "value": "did not alter QT"}
    ]},
    {"molecule": "C=CC(=O)N1CCC([C@@H]2CCNc3c(C(N)=O)c(-c4ccc(Oc5ccccc5)cc4)nn32)CC1", "note": "[zanubrutinib]", "values": [
      {"measurement": "prolongation of the QTc interval or clinically relevant ECG effects", "setting": "[4]", "value": "no prolongation of the QTc interval or clinically relevant ECG effects"}
    ]}
  ]
}
